The target of data set [1] is T1, P2X purinoceptor 7 (Homo sapiens, UniProt Q99572).
T1 sequence (Q99572 whole entry): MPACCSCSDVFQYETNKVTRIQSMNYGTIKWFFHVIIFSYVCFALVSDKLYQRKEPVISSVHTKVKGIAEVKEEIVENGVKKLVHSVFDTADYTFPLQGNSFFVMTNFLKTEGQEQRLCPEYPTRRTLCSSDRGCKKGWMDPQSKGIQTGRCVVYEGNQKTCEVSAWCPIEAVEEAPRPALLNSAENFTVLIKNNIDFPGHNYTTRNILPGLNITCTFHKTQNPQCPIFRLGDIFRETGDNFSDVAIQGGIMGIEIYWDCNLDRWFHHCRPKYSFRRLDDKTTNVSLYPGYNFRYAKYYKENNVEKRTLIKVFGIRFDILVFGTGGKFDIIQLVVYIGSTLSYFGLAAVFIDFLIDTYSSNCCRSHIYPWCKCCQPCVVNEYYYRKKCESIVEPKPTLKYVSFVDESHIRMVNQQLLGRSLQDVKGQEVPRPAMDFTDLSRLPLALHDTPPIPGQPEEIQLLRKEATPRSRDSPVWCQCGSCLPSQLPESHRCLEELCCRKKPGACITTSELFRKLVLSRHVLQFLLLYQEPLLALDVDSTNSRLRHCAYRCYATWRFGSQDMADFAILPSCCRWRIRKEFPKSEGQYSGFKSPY
Briefly: Antagonist activity at P2X7 receptor in human LPS-stimulated monocytes assessed as inhibition of ATP-induced IL1-beta release by ELISA. It counts as functional, cell-based.

Data set [2] has as its target T1, P2X purinoceptor 7. Briefly: Antagonist activity at P2X7 receptor expressed in HEK293 cells assessed as inhibition of ATP-induced YOPRO-1 uptake. It counts as functional, cell-based.
For data set [3], the target named is T2, P2X purinoceptor 7 (Homo sapiens) (UniProt Q99572).
T2 sequence (whole entry): T1 sequence (Q99572 whole entry)
Description: (§1) Antagonist activity at P2X7 receptor in human LPS-stimulated monocytes assessed as inhibition of ATP-induced IL1-beta release by ELISA in presence of human blood. It counts as functional, cell-based.

For data set [4], the target named is T1, P2X purinoceptor 7. Described as §1. It counts as functional, cell-based.
The nature of data set [5]: Fraction unbound in human plasma. It counts as ADME, cell-free.
Data set [6] in a line: Volume of distribution at steady state in rat. It counts as ADME, organism-based. As to conditions: in vivo, read-out: Vdss.
Data set [7] in a line: Half life in rat. It counts as ADME, organism-based. As to conditions: in vivo.
The nature of data set [8]: Cmax in rat at 5 mg/kg, po. It counts as ADME, organism-based. Also noted: dose 5 mg/kg, route oral. As to conditions: in vivo.
Data set [9] can be described thus: Oral bioavailability in rat at 5 mg/kg. It counts as ADME, organism-based. To be noted: in vivo.
Data set [10] is described as follows: Volume of distribution at steady state in dog. To be noted: in vivo, read-out: Vdss. It counts as ADME, organism-based, Canis lupus familiaris.
Data set [11] can be described thus: Half life in dog. It counts as ADME, organism-based, Canis lupus familiaris. As to conditions: in vivo.
The nature of data set [12]: Cmax in dog. It counts as ADME, organism-based, Canis lupus familiaris. As to conditions: in vivo.
Data set [13] can be described thus: Oral bioavailability in dog. It counts as ADME, organism-based, Canis lupus familiaris. As to conditions: in vivo.
Data set [14] is described as follows: Plasma clearance in monkey. As to conditions: rhesus monkey.
Data set [15] in a line: Volume of distribution at steady state in monkey. It counts as ADME, organism-based, Macaca mulatta. To be noted: rhesus monkey, in vivo; read-out: Vdss.
A short description of data set [16]: Half life in monkey. It counts as ADME, organism-based, Macaca mulatta. As to conditions: rhesus monkey, in vivo.
Data set [17] in a line: Cmax in monkey. It counts as ADME, organism-based, Macaca mulatta. As to conditions: rhesus monkey, in vivo.
The nature of data set [18]: Oral bioavailability in monkey. It counts as ADME, organism-based, Macaca mulatta. To be noted: rhesus monkey, in vivo.
A short description of data set [19]: in vivo. As to conditions: rat, plasma.
Data set [20] is described as follows: in vivo. As to conditions: dog, plasma.
The target in data set [21] is T2, P2X purinoceptor 7 (Homo sapiens). Briefly: Antagonist activity at P2X7 receptor in human LPS-stimulated monocytes assessed as inhibition of ATP-induced IL1-beta release at 5 uM by ELISA. It counts as functional, cell-based. In general terms: An ELISA detects its analyte on a solid surface through an enzyme-linked reagent.
Data set [22] has the same target. Description: Antagonist activity at P2X7 receptor in human monocytes assessed as inhibition of LPS/ATP-induced IL1-beta release at 1 uM by ELISA. It counts as functional, cell-based.

The structures appear in SMILES notation.

For orientation: IC50 means the concentration at which inhibition is half-maximal. For the compound `CCC(CC)CNC(=O)c1cc(-n2ncc(=O)[nH]c2=O)ccc1Cl`, the IC50 in [1] amounted to 1100 nM.
By IC90 is commonly meant the concentration needed for an effect of 90%. The fraction unbound is the share of the substance not bound to proteins or other matrix. In general, half-life refers to how long it takes for the measured level to halve. In general, Cmax refers to the highest concentration seen after dosing. For orientation: bioavailability means the share of a dose that reaches the circulation, judged against a reference dose that is usually intravenous. Usually clearance stands for the volume of plasma or blood freed of the substance per unit of time. On to `O=C(NCC1(O)CCCCCC1)c1cc(-n2ncc(=O)[nH]c2=O)ccc1Cl`, for which the figures for the IC50 in data set [2], in [1] and in data set [4] were 15 nM, 83 nM and 447 nM, respectively. For the same compound, the IC90 in [3] was determined as 1000 nM. In data set [5], this compound showed a fraction unbound of 0.18. The results for the Vd in data set [6], in data set [10] and in data set [15] were 8.5 L/kg, 0.6 L/kg and 1.5 L/kg, respectively. In addition, the half-life in [7] is 3.2 h; in [11], 3.8 h; in data set [16], 3.4 h. The Cmax came to 1300 ng/mL in [8], 7400 ng/mL in data set [12] and 600 ng/mL in [17]. Besides, the results for the bioavailability in data set [9], in data set [13] and in data set [18] were 75%, 84% and 72%, respectively. The clearance in data set [14] was found to be 21 mL/min/kg; in data set [19], 20 mL/min/kg; in [20], 3.8 mL/min/kg.
Usually inhibition stands for how much of the control response was suppressed. In the case of `O=C(NCCCc1ccccc1)c1cc(-n2ncc(=O)[nH]c2=O)ccc1Cl`, the inhibition in [21] amounted to 0%.
Same read-out and setting: for `CCCCC(CC)COC(=O)c1cc(-n2ncc(=O)[nH]c2=O)ccc1Cl` (centres undefined) the value was 19%.
With `O=C(NCC1CCOCC1)c1cc(-n2ncc(=O)[nH]c2=O)ccc1Cl`, in data set [1], the IC50 is > 5000 nM.
Same read-out and setting: for `Cc1ccc(-n2ncc(=O)[nH]c2=O)cc1C(=O)NCC1(O)CCCCCC1` the value was 700 nM.
For `CCCCC(CC)CNC(=O)c1cc(-n2ncc(=O)[nH]c2=O)ccc1Cl` (centres undefined), in data set [2], the IC50 stood at 1100 nM.
Regarding `COCCn1c(=O)cnn(-c2ccc(Cl)c(C(=O)NCC3(O)CCCCCC3)c2)c1=O`, the half-maximal inhibitory concentration (IC50) in data set [1] was determined as 19 nM; in data set [4] it was 71 nM.
Take `O=C(NCCc1cccnc1)c1cc(-n2ncc(=O)[nH]c2=O)ccc1Cl`: the inhibition in [21] is 22%.
For the compound `CCCCCNC(=O)c1cc(-n2ncc(=O)[nH]c2=O)ccc1Cl`, in [1], the 50% inhibitory concentration (IC50) amounted to 2800 nM.
The same measure, in the same setting: for `CCCOCCNC(=O)c1cc(-n2ncc(=O)[nH]c2=O)ccc1Cl` the value was > 5000 nM.
With `O=C(NCC1(O)CCCCCC1)c1cc(-n2ncc(=O)[nH]c2=O)ccc1F`, the inhibition in data set [22] was 20%.
Regarding `CCOCCCNC(=O)c1cc(-n2ncc(=O)[nH]c2=O)ccc1Cl`, in data set [21], the inhibition came out at 2%.
In the case of `CCCCNC(=O)c1cc(-n2ncc(=O)[nH]c2=O)ccc1Cl`, in data set [21], the inhibition came out at 0%.

(Values after ChEMBL document CHEMBL1777794, “Optimization of the physicochemical and pharmacokinetic attributes in a 6-azauracil series of P2X7 receptor antagonists leading to the discovery of the clinical candidate CE-224,535” (Bioorg Med Chem Lett, 2011).)
